Laboratory results reported in patent US9155752B2, “Liver function-improving agent” (UENO FINE CHEMICALS INDUSTRY, LTD., priority 2012, dated 2015).
“Also recorded” adds a separate entry of the source.

Tested on: NASH mice
Test: Sirius Red staining of liver, fibrosis area % (Test Example 3)
Assay type: in vivo
Settings: for Fibrosis area %, Significant difference: Bonferroni, 5% level, tendency at 10% level; for Fibrosis area % (Sirius Red staining), mean ± standard deviation: 8 weeks of age
From the text: A solid diet CE-2 (lipid 4.6% by weight, manufactured by CLEA Japan, Inc.) was used as a normal diet. A solid diet, High Fat Diet 32 (lipid 32.0% by weight, sucrose 6.75% by weight, manufactured by CLEA Japan, Inc.), was used as a sucrose-containing high fat diet. As a maltitol-containing high-fat diet, a special diet (lipid 32.0% by weight, maltitol 6.08% by weight; manufactured by CLEA Japan, Inc.) obtained by replacing the total amount (6.75% by weight) of sucrose in a solid diet, High Fat Diet 32, with powdered maltitol (Whole Crystalline Maltitol Ueno 60M (purity of maltitol: 90%), manufactured by Ueno Fine Chemicals Industry Ltd.) was used. Sodium hypochlorite (PURELOX-S, manufactured by OYALOX Co., Ltd.) was added to pure water prepared by Elix-UV pure water producing apparatus, to a final concentration of 0.00009%, so that pure water for use in the test was obtained. An aqueous maltitol solution was prepared by dissolving powdered maltitol (Whole Crystalline Maltitol Ueno 60M (purity of maltitol: 90%), manufactured by Ueno Fine Chemicals Industry Ltd.) in pure water to a concentration of 1.8% (weight/volume). The purity of maltitol in the aqueous maltitol solution was 1.62%. Twenty-one female SPF mice (C57BL/6J, produced by CLEA Japan, Inc.) on day 14 of pregnancy were purchased and acclimation was performed. All animals were allowed to make a natural birth and a born male was used to produce a model. In addition, the weaning was at 4 weeks after birth. Streptozotocin (Sigma-Aldrich Japan K.K.) was adjusted to a concentration of 10 mg/mL with a physiological saline solution (manufactured by Otsuka Pharmaceutical Factory, Inc.) and the solution was subcutaneously administered once to the back of 2-day-old male mice at a dose of 20 μL/mouse (200 μg/mouse). Afterwards, the mother animal took care of the baby until weaning. The weaning was on day 28±2 after birth. After the weaning, a normal diet was supplied ad libitum to animals receiving no streptozotocin (normal mice (group S1 and group 1)), and a sucrose-containing high fat diet was supplied ad libitum to animals receiving streptozotocin (NASH mice (group S2, group 2, group 3, and group 4). A normal diet was supplied ad libitum to normal mice (group 1). With respect to NASH mice, a sucrose-containing high fat diet was supplied ad libitum to the sucrose group (group 2), and a maltitol-containing high fat diet was supplied ad libitum to the maltitol-low dose group (group 3) and the maltitol-high dose group (group 4). An aqueous maltitol solution was supplied ad libitum only to the maltitol-high dose group (group 4) of 5 to 8 weeks of age, and pure water was supplied ad libitum to the groups other than group 4 of 5 to 8 weeks of age. Six male animals per group were assigned to groups S1 and S2, reared up to 5 weeks of age, and then necropsied. Eight male animals per group were assigned to groups 1, 2, 3 and 4, reared up to 8 weeks of age, and then necropsied. At scheduled necropsy of the animals of 5 or 8 weeks of age, all individuals were anesthetized with diethyl ether (manufactured by Sigma-Aldrich Japan K.K.) and a needle through which heparin sodium (Novo Heparin Injection 1000, manufactured by Mochida Pharmaceutical Co., Ltd.) had been passed was punctured to the heart to aspirate the whole blood, leading to euthanasia, followed by harvest of the organ. […]

SMILES | Fibrosis area %, Significant difference (Group 3 (low-dose maltitol) vs sucrose group (group 2)) | Fibrosis area % (Sirius Red staining), mean ± standard deviation (Group 3, low-dose maltitol: HFD32-M (maltitol 6.08%) + pure water) | Fibrosis area %, Significant difference (Group 4 (high-dose maltitol) vs sucrose group (group 2)) | Fibrosis area % (Sirius Red staining), mean ± standard deviation (Group 4, high-dose maltitol: HFD32-M (maltitol 6.08%) + aqueous maltitol solution 1.62%) | Fibrosis area % (Sirius Red staining), mean ± standard deviation (Group 2, sucrose group: HFD32 (sucrose 6.75%) + pure water)
OC[C@@H](O)[C@@H](O[C@H]1O[C@H](CO)[C@@H](O)[C@H](O)[C@H]1O)[C@H](O)[C@@H](O)CO [maltitol] | tendency to be low; also recorded: Tendency to be different | 0.89 ± 0.15% | tendency to be low; also recorded: Tendency to be different | 0.86 ± 0.27% | 
OC[C@H]1O[C@@](CO)(O[C@H]2O[C@H](CO)[C@@H](O)[C@H](O)[C@H]2O)[C@@H](O)[C@@H]1O [sucrose, reference compound] |  |  |  |  | 1.09 ± 0.23%
